“And” between values parts separate entries of the source, which are not always exact repeats. Identical values can stand only once. Inconclusive results and toxic doses are left out.
Tested on: P388 leukemia ip, CD2F1 mice, survival T/C
Assay: NCI In Vivo Anticancer Drug Screen. Data for tumor model P388 Leukemia (intraperitoneal) in CD2F1 (CDF1) mice
Conditions: endpoint: median survival time, higher = longer survival
Summary of the method: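 Mice carrying the transplanted tumor received test compound or vehicle. Survival was recorded in each group, and the value is the treated-group measurement divided by that of the vehicle-treated control group.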

[1] = dose: 50.0 mg/kg/injection, schedule: Q01DX009 (ip), vehicle: saline
[2] = dose: 100.0 mg/kg/injection, schedule: Q04DX003 (ip), vehicle: saline with Tween-80
[3] = dose: 200.0 mg/kg/injection, schedule: Q04DX003 (ip), vehicle: saline with Tween-80
[4] = dose: 0.4 mg/kg/injection, schedule: Q01DX009 (ip), vehicle: water
[5] = dose: 60.0 mg/kg/injection, schedule: Q01DX005 (ip), vehicle: saline with Tween-80
[6] = dose: 120.0 mg/kg/injection, schedule: Q01DX005 (ip), vehicle: saline with Tween-80
[7] = dose: 240.0 mg/kg/injection, schedule: Q01DX005 (ip), vehicle: saline with Tween-80

CCCCCCCCCCCC(=O)OCCN1CCN(CCCN2c3ccccc3Sc3ccc(C(F)(F)F)cc32)CC1
T/C (dose: 0.78 mg/kg/injection, schedule: Q01DX009 (ip), vehicle: saline with Tween-80): 108 % of control
T/C (dose: 1.56 mg/kg/injection, schedule: Q01DX009 (ip), vehicle: saline with Tween-80): 104 % of control
T/C (dose: 3.12 mg/kg/injection, schedule: Q01DX009 (ip), vehicle: saline with Tween-80): 105 % of control and 93 % of control
T/C (dose: 6.25 mg/kg/injection, schedule: Q01DX009 (ip), vehicle: saline with Tween-80): 107 % of control
T/C (dose: 12.5 mg/kg/injection, schedule: Q01DX009 (ip), vehicle: saline with Tween-80): 101 % of control and 107 % of control
T/C (dose: 25.0 mg/kg/injection, schedule: Q01DX009 (ip), vehicle: saline with Tween-80): 106 % of control
T/C (dose: 50.0 mg/kg/injection, schedule: Q01DX009 (ip), vehicle: saline with Tween-80): 114 % of control
T/C (dose: 100.0 mg/kg/injection, schedule: Q01DX009 (ip), vehicle: saline with Tween-80): 97 % of control

CC1NCCc2[nH]cnc21 (configuration not stated)
T/C [1]: 96 % of control
T/C (dose: 100.0 mg/kg/injection, schedule: Q01DX009 (ip), vehicle: saline): 100 % of control
T/C (dose: 200.0 mg/kg/injection, schedule: Q01DX009 (ip), vehicle: saline): 105 % of control

O=C1CNC(=O)c2cc(N=Cc3ccccc3O)ccc2N1
T/C [2]: 111 % of control
T/C [3]: 114 % of control
T/C (dose: 400.0 mg/kg/injection, schedule: Q04DX003 (ip), vehicle: saline with Tween-80): 104 % of control

COc1cc2c(c(OC)c1OC)-c1ccc(SC)c(=O)cc1[C@@H](NC(=O)CCl)CC2
T/C (dose: 0.03 mg/kg/injection, schedule: Q01DX009 (ip), vehicle: water): 124 % of control
T/C [4]: 155 % of control

COc1cc(OC)c2c(c1)C(C1c3cc(C)cc(O)c3C(=O)c3c(OC)cc(OC)cc31)c1cc(C)cc(O)c1C2=O (configuration not stated)
T/C (dose: 12.5 mg/kg/injection, schedule: Q01DX005 (ip), vehicle: Klucel (hydroxypropylcellulose) (HPC)): 105 % of control
T/C (dose: 25.0 mg/kg/injection, schedule: Q01DX005 (ip), vehicle: Klucel (hydroxypropylcellulose) (HPC)): 100 % of control
T/C (dose: 50.0 mg/kg/injection, schedule: Q01DX005 (ip), vehicle: Klucel (hydroxypropylcellulose) (HPC)): 92 % of control
T/C (dose: 100.0 mg/kg/injection, schedule: Q01DX005 (ip), vehicle: Klucel (hydroxypropylcellulose) (HPC)): 92 % of control
T/C (dose: 200.0 mg/kg/injection, schedule: Q01DX005 (ip), vehicle: Klucel (hydroxypropylcellulose) (HPC)): 96 % of control

CCN(CC)CCCC(CO)Nc1ccnc2cc(Cl)ccc12 (configuration not stated)
T/C (dose: 50.0 mg/kg/injection, schedule: Q01DX009 (ip), vehicle: Klucel (hydroxypropylcellulose) (HPC)): 104 % of control and 100 % of control
T/C (dose: 100.0 mg/kg/injection, schedule: Q01DX009 (ip), vehicle: Klucel (hydroxypropylcellulose) (HPC)): 96 % of control and 98 % of control

CC1=C(C)C(C#N)N(C)CC1 (configuration not stated)
T/C (dose: 3.75 mg/kg/injection, schedule: Q01DX005 (ip), vehicle: Klucel (hydroxypropylcellulose) (HPC)): 102 % of control
T/C (dose: 7.5 mg/kg/injection, schedule: Q01DX005 (ip), vehicle: Klucel (hydroxypropylcellulose) (HPC)): 100 % of control

S=c1[nH]nc2nc3c4ccccc4c4ccccc4c3nn12
T/C (dose: 50.0 mg/kg/injection, schedule: Q04DX003 (ip), vehicle: saline): 95 % of control
T/C (dose: 100.0 mg/kg/injection, schedule: Q04DX003 (ip), vehicle: saline): 95 % of control
T/C (dose: 200.0 mg/kg/injection, schedule: Q04DX003 (ip), vehicle: saline): 93 % of control

CC(=O)c1cc(C(O)C(O)C(O)C(O)CO)[nH]c1C (configuration not stated)
T/C (dose: 50.0 mg/kg/injection, schedule: Q01DX005 (ip), vehicle: saline): 108 % of control
T/C (dose: 100.0 mg/kg/injection, schedule: Q01DX005 (ip), vehicle: saline): 108 % of control
T/C (dose: 200.0 mg/kg/injection, schedule: Q01DX005 (ip), vehicle: saline): 110 % of control

O=C(O)Cc1cc(Br)c(O)c(Br)c1
T/C (dose: 12.5 mg/kg/injection, schedule: Q01DX009 (ip), vehicle: distilled water + Tween-80): 107 % of control
T/C (dose: 25.0 mg/kg/injection, schedule: Q01DX009 (ip), vehicle: distilled water + Tween-80): 107 % of control
T/C (dose: 50.0 mg/kg/injection, schedule: Q01DX009 (ip), vehicle: distilled water + Tween-80): 98 % of control
T/C (dose: 100.0 mg/kg/injection, schedule: Q01DX009 (ip), vehicle: distilled water + Tween-80): 98 % of control
T/C (dose: 200.0 mg/kg/injection, schedule: Q01DX009 (ip), vehicle: distilled water + Tween-80): 100 % of control

COc1cc2c(c(OC)c1OC)-c1ccc(OC)c(=O)cc1[C@@H](NC(C)=O)CC2
T/C (dose: 0.02 mg/kg/injection, schedule: Q01DX009 (ip), vehicle: saline): 117 % of control
T/C (dose: 0.06 mg/kg/injection, schedule: Q01DX009 (ip), vehicle: saline): 119 % of control
T/C (dose: 0.08 mg/kg/injection, schedule: Q01DX009 (ip), vehicle: saline): 150 % of control
T/C (dose: 0.13 mg/kg/injection, schedule: Q01DX005 (ip), vehicle: saline): 120 % of control
T/C (dose: 0.16 mg/kg/injection, schedule: Q01DX009 (ip), vehicle: saline): 156 % of control
T/C (dose: 0.32 mg/kg/injection, schedule: Q01DX009 (ip), vehicle: saline): 186 % of control
T/C (dose: 0.37 mg/kg/injection, schedule: Q01DX010 (ip), vehicle: saline): 168 % of control
T/C [4]: 176 % of control
T/C (dose: 0.5 mg/kg/injection, schedule: Q01DX005 (ip), vehicle: saline): 169 % of control
T/C (dose: 0.64 mg/kg/injection, schedule: Q01DX009 (ip), vehicle: saline): 225 % of control
T/C (dose: 0.75 mg/kg/injection, schedule: Q01DX010 (ip), vehicle: saline): 159 % of control
T/C (dose: 1.0 mg/kg/injection, schedule: Q01DX005 (ip), vehicle: saline): 160 % of control and 197 % of control and 205 % of control
T/C (dose: 1.25 mg/kg/injection, schedule: Q01DX009 (ip), vehicle: saline): 100 % of control (2×) and 281 % of control
T/C (dose: 2.0 mg/kg/injection, schedule: Q01DX005 (ip), vehicle: saline): 175 % of control

COc1ccc(-c2cc3cc(OC)c(OC)cc3c(-c3ccccc3)n2)cc1OC
T/C [5]: 98 % of control
T/C [6]: 95 % of control
T/C [7]: 90 % of control

CSC1NN=C(CCC(=O)Nc2ccc(C)cc2)O1 (configuration not stated)
T/C [5]: 108 % of control
T/C [6]: 92 % of control
T/C [7]: 102 % of control

CN(C)CCCCNc1ccc(NCCCCN(C)C)c2c1C(=O)c1c(O)ccc(O)c1C2=O
T/C (dose: 12.5 mg/kg/injection, schedule: Q01DX009 (ip), vehicle: saline): 100 % of control
T/C (dose: 25.0 mg/kg/injection, schedule: Q01DX009 (ip), vehicle: saline): 108 % of control
T/C [1]: 106 % of control

COC(=O)CCCCCCCCCCCCCC1C=CCC1 (configuration not stated)
T/C (dose: 100.0 mg/kg/injection, schedule: Q01DX001 (ip), vehicle: saline): 101 % of control
T/C (dose: 200.0 mg/kg/injection, schedule: Q01DX001 (ip), vehicle: saline): 100 % of control
T/C (dose: 400.0 mg/kg/injection, schedule: Q01DX001 (ip), vehicle: saline): 101 % of control

C=C1C(=O)OC2/C=C(\C)CC/C=C(\C(=O)O)CC/C=C(/C)CCC12 (configuration not stated)
T/C (dose: 5.0 mg/kg/injection, schedule: Q01DX005 (ip), vehicle: Klucel (hydroxypropylcellulose) (HPC)): 100 % of control
T/C (dose: 10.0 mg/kg/injection, schedule: Q01DX005 (ip), vehicle: Klucel (hydroxypropylcellulose) (HPC)): 117 % of control
T/C (dose: 20.0 mg/kg/injection, schedule: Q01DX005 (ip), vehicle: Klucel (hydroxypropylcellulose) (HPC)): 118 % of control
T/C (dose: 40.0 mg/kg/injection, schedule: Q01DX005 (ip), vehicle: Klucel (hydroxypropylcellulose) (HPC)): 115 % of control
T/C (dose: 80.0 mg/kg/injection, schedule: Q01DX005 (ip), vehicle: Klucel (hydroxypropylcellulose) (HPC)): 115 % of control

COC1CCCC=C1[N+](=O)[O-] (configuration not stated)
T/C (dose: 6.25 mg/kg/injection, schedule: Q01DX005 (ip), vehicle: saline): 108 % of control
T/C (dose: 12.5 mg/kg/injection, schedule: Q01DX005 (ip), vehicle: saline): 116 % of control
T/C (dose: 25.0 mg/kg/injection, schedule: Q01DX005 (ip), vehicle: saline): 115 % of control

Cc1ccc(S(=O)(=O)/C=C/CCl)cc1
T/C (dose: 50.0 mg/kg/injection, schedule: Q01DX005 (ip), vehicle: saline with Tween-80): 103 % of control
T/C (dose: 100.0 mg/kg/injection, schedule: Q01DX005 (ip), vehicle: saline with Tween-80): 113 % of control

Cc1ccc(NCCN2CCCCC2)c2c(=O)c3ccc(Cl)cc3sc12
T/C (dose: 60.0 mg/kg/injection, schedule: Q01DX005 (ip), vehicle: Klucel (hydroxypropylcellulose) (HPC)): 94 % of control
T/C (dose: 120.0 mg/kg/injection, schedule: Q01DX005 (ip), vehicle: Klucel (hydroxypropylcellulose) (HPC)): 86 % of control
T/C (dose: 240.0 mg/kg/injection, schedule: Q01DX005 (ip), vehicle: Klucel (hydroxypropylcellulose) (HPC)): 97 % of control

CN(C)CCNc1ccc(O)c2sc3ccccc3c(=O)c12
T/C [2]: 94 % of control
T/C [3]: 90 % of control
